Measurements published in ChEMBL document CHEMBL1142641, “New isomalabaricane derivatives from a new species of Jaspis sponge collected at the Vanuatu islands” (J Nat Prod, 2000).

assay: Cytotoxicity against mouse […] cells; format: functional, cell-based

Row | SMILES | IC50
1 | COC(=O)[C@]1(C)[C@@H]2CC[C@]3(C)\C(=C(C)/C=C/C=C(C)/C=C/C=O)C(=O)C[C@@H]3[C@@]2(C)CC[C@H]1OC(C)=O | > 3.3 µg/mL
2 | COC(=O)/C(C)=C1\C(=O)C[C@@H]2[C@@]3(C)CC[C@@H](OC(C)=O)[C@](C)(C(=O)OC)[C@@H]3CC[C@]12C [JASPIFEROIC ACID A DIMETHYL ESTER] | > 3.3 µg/mL
3 | COC(=O)[C@]1(C)[C@@H]2CC[C@]3(C)\C(=C(C)/C=C/C=C(C)/C=C/C(OC)C(C)(C)O)C(=O)C[C@@H]3[C@@]2(C)CC[C@H]1OC(C)=O (some centres not stated) [GLOBOSTELLATIC ACD C METHYL ESTER] | > 3.3 µg/mL
4 | COC(=O)[C@]1(C)[C@@H]2CC[C@]3(C)\C(=C(C)/C=C/C=C(\C)C(/C=C/C(C)(C)O)OC)C(=O)C[C@@H]3[C@@]2(C)CC[C@H]1OC(C)=O (some centres not stated) [GLOBOSTELLATIC ACD B METHYL ESTER] | > 3.3 µg/mL
5 | COC(=O)[C@]1(C)[C@@H]2CC[C@]3(C)/C(=C(/C)C=O)C(=O)C[C@@H]3[C@@]2(C)CC[C@H]1OC(C)=O | > 3.3 µg/mL
6 | COC(=O)/C=C/C(C)=C1/C(=O)C[C@@H]2[C@@]3(C)CC[C@@H](OC(C)=O)[C@](C)(C(=O)OC)[C@@H]3CC[C@]12C [JASPIFEROIC ACID B DIMETHYL ESTER] | > 3.3 µg/mL
7 | COC(=O)[C@]1(C)[C@@H]2CC[C@]3(C)\C(=C(C)/C=C/C=C(\C)C=O)C(=O)C[C@@H]3[C@@]2(C)CC[C@H]1OC(C)=O | > 3.3 µg/mL
